Measurements taken from the supplement of paper PMC11451515.

System: NOMO1
Assay: cell viability relative to DMSO control; higher = less cytotoxic
Conditions: 48 h
Method in brief: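 NOMO1 or SEM (500 cells/well) or P12-Ichikawa (1000 cells/well) leukemia cells were adapted for at least four passages in each medium. They were seeded in 1536-well plates (5 μl) and pin-dosed with library compounds in DMSO over an 11-point threefold series, 47 μM to 0.79 nM. CellTiter-Glo One luminescence was read after 48 h at 37°C. Viability is the per-plate percentage relative to DMSO wells, with cell-free wells as background.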

[1] = HPLM + 10% dialyzed FBS, 0.000781 µM
[2] = HPLM + 10% dialyzed FBS, 0.00234 µM
[3] = HPLM + 10% dialyzed FBS, 0.00702 µM
[4] = HPLM + 10% dialyzed FBS, 0.0211 µM
[5] = HPLM + 10% dialyzed FBS, 0.0632 µM
[6] = HPLM + 10% dialyzed FBS, 0.19 µM
[7] = HPLM + 10% dialyzed FBS, 0.569 µM
[8] = HPLM + 10% dialyzed FBS, 1.71 µM
[9] = HPLM + 10% dialyzed FBS, 5.12 µM
[10] = HPLM + 10% dialyzed FBS, 15.4 µM
[11] = HPLM + 10% dialyzed FBS, 46.1 µM
[12] = RPMI 5 mM glucose + 10% FBS, 0.000781 µM
[13] = RPMI 5 mM glucose + 10% FBS, 0.00234 µM
[14] = RPMI 5 mM glucose + 10% FBS, 0.00702 µM
[15] = RPMI 5 mM glucose + 10% FBS, 0.0211 µM
[16] = RPMI 5 mM glucose + 10% FBS, 0.0632 µM
[17] = RPMI 5 mM glucose + 10% FBS, 0.19 µM
[18] = RPMI 5 mM glucose + 10% FBS, 0.569 µM
[19] = RPMI 5 mM glucose + 10% FBS, 1.71 µM
[20] = RPMI 5 mM glucose + 10% FBS, 5.12 µM
[21] = RPMI 5 mM glucose + 10% FBS, 15.4 µM
[22] = RPMI 5 mM glucose + 10% FBS, 46.1 µM
[23] = RPMI 5 mM glucose + 10% dialyzed FBS, 0.000781 µM
[24] = RPMI 5 mM glucose + 10% dialyzed FBS, 0.00234 µM
[25] = RPMI 5 mM glucose + 10% dialyzed FBS, 0.00702 µM
[26] = RPMI 5 mM glucose + 10% dialyzed FBS, 0.0211 µM
[27] = RPMI 5 mM glucose + 10% dialyzed FBS, 0.0632 µM
[28] = RPMI 5 mM glucose + 10% dialyzed FBS, 0.19 µM
[29] = RPMI 5 mM glucose + 10% dialyzed FBS, 0.569 µM
[30] = RPMI 5 mM glucose + 10% dialyzed FBS, 1.71 µM
[31] = RPMI 5 mM glucose + 10% dialyzed FBS, 5.12 µM
[32] = RPMI 5 mM glucose + 10% dialyzed FBS, 15.4 µM
[33] = RPMI 5 mM glucose + 10% dialyzed FBS, 46.1 µM

Row | Compound | cell viability [1] [%] | cell viability [2] [%] | cell viability [3] [%] | cell viability [4] [%] | cell viability [5] [%] | cell viability [6] [%] | cell viability [7] [%] | cell viability [8] [%] | cell viability [9] [%] | cell viability [10] [%] | cell viability [11] [%] | cell viability [12] [%] | cell viability [13] [%] | cell viability [14] [%] | cell viability [15] [%] | cell viability [16] [%] | cell viability [17] [%] | cell viability [18] [%] | cell viability [19] [%] | cell viability [20] [%] | cell viability [21] [%] | cell viability [22] [%] | cell viability [23] [%] | cell viability [24] [%] | cell viability [25] [%] | cell viability [26] [%] | cell viability [27] [%] | cell viability [28] [%] | cell viability [29] [%] | cell viability [30] [%] | cell viability [31] [%] | cell viability [32] [%] | cell viability [33] [%]
1 | COC(=O)Nc1nc2cc(C(=O)c3ccc(F)cc3)ccc2[nH]1 | 103 | 113 | 102 | 104 | 102 | 103 | 84.7 | 54.9 | 32.9 | 52.2 | 40.3 | 107 | 98.1 | 91.4 | 95.3 | 101 | 97.5 | 98.6 | 83.8 | 34.8 | 83.8 | 83.9 | 99.3 | 103 | 94.1 | 107 | 89.3 | 93 | 90.9 | 65.3 | 31.9 | 74.1 | 72.9
2 | CCc1cc2c(cc1N1CCC(N3CCOCC3)CC1)C(C)(C)c1[nH]c3cc(C#N)ccc3c1C2=O | 83.9 | 68.5 | 94.7 | 117 | 135 | 151 | 134 | 121 | 105 | 102 | 68.3 | 91.1 | 83.2 | 102 | 119 | 126 | 132 | 124 | 112 | 117 | 114 | 58.8 | 80.3 | 73.9 | 71.7 | 107 | 125 | 133 | 120 | 111 | 115 | 110 | 52.1
3 | CCn1c(-c2nonc2N)nc2c(C#CC(C)(C)O)ncc(OC[C@H]3CCCNC3)c21 | 91.3 | 88.8 | 80 | 96 | 73.4 | 75.8 | 71.9 | 61.7 | 70.3 | 71.7 | 48 | 80.8 | 82.5 | 84.1 | 84.1 | 79.8 | 87.3 | 81 | 83.5 | 82 | 84.1 | 49.3 | 77.2 | 96.1 | 86.8 | 93.7 | 80.6 | 84.3 | 74.4 | 82 | 74.2 | 79.2 | 68.2
4 | COc1ccc(C(=O)c2c(C)n(CCN3CCOCC3)c3ccccc23)cc1 | 87.4 | 99.9 | 98.1 | 108 | 107 | 129 | 107 | 104 | 95.2 | 90.2 | 87.6 | 91.7 | 92.5 | 94.4 | 91.7 | 85.4 | 99.6 | 82.9 | 97.1 | 95.7 | 88.6 | 93.7 | 87.1 | 84.2 | 92.5 | 88.5 | 104 | 76.9 | 98.9 | 92 | 87.9 | 86.6 | 92
5 | OC1=CC2=C(C=C1)C(=O)\C(=C(O2)\C3=CC(=C(O)C=C3)O)O | 105 | 98 | 108 | 93 | 102 | 97.1 | 91.2 | 105 | 84 | 93.9 | 65.6 | 85.9 | 91.3 | 96.2 | 6.71 | 96.6 | 85 | 99.7 | 88.9 | 74.5 | 74.8 | 67.5 | 96.5 | 103 | 101 | 96.3 | 100 | 92 | 93.3 | 89.5 | 81.3 | 81.3 | 60.1
6 | O=S(=O)([O-])CCS.[Na+] | 100 | 141 | 124 | 131 | 130 | 112 | 123 | 44.1 | 38.9 | 46.4 | 37.5 |  |  |  |  |  |  |  |  |  |  |  |  |  |  |  |  |  |  |  |  |  | 
7 | N[C@H]2CN(CC12CC1)c3c(F)cc4c(c3Cl)[N@@](C=C(C4=O)C(=O)O)C5C[C@H]5F (stereo partly specified) | 98.5 | 110 | 98.1 | 102 | 98.2 | 89.5 | 83.2 | 84 | 94 | 50.4 | 92.1 | 83.7 | 92 | 89.1 | 78.6 | 90.2 | 83.5 | 72.1 | 82 | 75.2 | 48.4 | 97.1 | 76.7 | 91 | 91.2 | 94.9 | 98.1 | 86.5 | 81.9 | 91.3 | 89.8 | 69 | 77
8 | COc1ccc(OC)c(-c2nnc3ccc(-c4ccc(OC)c(O[C@@H]5CCOC5)c4)nn23)c1 |  |  |  |  |  |  |  |  |  |  |  |  |  |  |  |  |  |  |  |  |  |  | 123 | 120 | 140 | 128 | 137 | 140 | 134 | 147 | 137 | 145 | 98.3
9 | NC(=O)Nc1sc(-c2ccc(F)cc2)cc1C(N)=O | 108 | 112 | 117 | 111 | 121 | 102 | 94.5 | 99.8 | 83.8 | 60.2 | 55.2 | 117 | 99.7 | 115 | 96 | 113 | 110 | 96.7 | 92.4 | 95.9 | 78 | 50.5 | 101 | 111 | 111 | 100 | 103 | 107 | 104 | 79.4 | 75.6 | 62 | 54.1
10 | CCN(CCO)CCCOc1ccc2c(Nc3cc(CC(=O)Nc4cccc(F)c4)[nH]n3)ncnc2c1 | 110 | 128 | 102 | 114 | 106 | 85.7 | 82.7 | 76.2 | 77.8 | 81.6 | 45.1 | 113 | 105 | 120 | 113 | 98.5 | 65.6 | 50.5 | 44.7 | 40.9 | 54.1 | 54 | 110 | 110 | 105 | 111 | 104 | 63.8 | 52.6 | 50.2 | 51.7 | 56.9 | 80.6
11 | C[C@H](CCC(=O)O)[C@H]1CCC2C3C[C@H](O)[C@@H]4C[C@H](O)CC[C@]4(C)C3CC[C@@]21C (stereo partly specified) | 112 | 123 | 139 | 133 | 119 | 121 | 97.6 | 104 | 114 | 123 | 110 | 113 | 106 | 121 | 119 | 119 | 116 | 96.7 | 106 | 113 | 108 | 103 | 102 | 126 | 118 | 108 | 122 | 109 | 107 | 94.7 | 116 | 105 | 110
12 | O=C1CCC[C@@H]2[C@H]3CCCN4CCC[C@@H](CN12)[C@@H]34 | 59.1 | 68.9 | 78.1 | 87.1 | 87.2 | 94.8 | 38.3 | 93.2 | 26.6 | 25.3 | 13.6 | 79 | 92.2 | 84.6 | 86.8 | 85.2 | 90.9 | 55.3 | 85.2 | 17.2 | 13.9 | 7.48 | 66.1 | 79.6 | 90.2 | 82.9 | 86 | 93.6 | 69.3 | 77.8 | 19.1 | 18.6 | 10.8
13 | CCOC(=O)C(C#N)C\1C2=CC(=CC=C2O\C(=C1C(=O)OCC)N)Br (stereo unspecified) | 113 | 120 | 110 | 99.9 | 114 | 104 | 96.1 | 107 | 117 | 92.4 | 97.5 | 97.8 | 90.3 | 97.5 | 87.9 | 99.3 | 102 | 107 | 91.5 | 94.5 | 83.7 | 82.4 | 99.1 | 95.1 | 99 | 95.7 | 104 | 83.8 | 94.4 | 94.7 | 96.7 | 80.3 | 82.6
14 | OC[C@H]1O[C@H](C[C@@H]1O)N2\C=C(F)/C(=O)NC2=O | 115 | 120 | 120 | 70.9 | 51.9 | 46.8 | 52.1 | 50.4 | 35.5 | 27.8 | 17.9 | 121 | 118 | 114 | 118 | 120 | 89.9 | 82.6 | 72.7 | 44.1 | 39.1 | 30.2 | 140 | 119 | 106 | 79.2 | 63.9 | 46.4 | 47 | 34.4 | 24.6 | 27.6 | 20.1
15 | CC[N+](CC)(CC)CCOc1cccc(OCC[N+](CC)(CC)CC)c1OCC[N+](CC)(CC)CC |  |  |  |  |  |  |  |  |  |  |  | 106 | 118 | 108 | 118 | 136 | 110 | 98 | 98.9 | 104 | 112 | 75.7 | 116 | 118 | 115 | 109 | 127 | 114 | 99.4 | 100 | 111 | 101 | 91
16 | C[N]1C=C(C2=CC=CC=C12)\C3=C(\C(=O)NC3=O)C4=C[N](C5CCN(CC5)CC6=NC=CC=C6)C7=C4C=CC=C7 | 115 | 115 | 110 | 116 | 133 | 116 | 133 | 131 | 129 | 120 | 140 | 100 | 118 | 110 | 107 | 113 | 110 | 109 | 101 | 105 | 129 | 120 | 102 | 113 | 110 | 113 | 119 | 116 | 118 | 116 | 134 | 138 | 113
17 | OC1=CC=C(C=C1)\C2=C\OC3=C(C(=CC(=C3)O)O)C2=O | 110 | 112 | 117 | 120 | 116 | 122 | 124 | 113 | 107 | 137 | 117 | 108 | 111 | 107 | 117 | 104 | 115 | 108 | 109 | 112 | 123 | 110 | 94.7 | 113 | 99.8 | 110 | 118 | 117 | 107 | 108 | 118 | 115 | 103
